Blank lines part the entries; values can stand above or below the molecule they belong to.
Tests used:
ODC [1] = molecular target: T1, ODC (Rattus norvegicus, UniProt P09057); conditions: for inhibition at 15000 µM: read-out: ODC activity decreased
T1 sequence (P09057 1-461): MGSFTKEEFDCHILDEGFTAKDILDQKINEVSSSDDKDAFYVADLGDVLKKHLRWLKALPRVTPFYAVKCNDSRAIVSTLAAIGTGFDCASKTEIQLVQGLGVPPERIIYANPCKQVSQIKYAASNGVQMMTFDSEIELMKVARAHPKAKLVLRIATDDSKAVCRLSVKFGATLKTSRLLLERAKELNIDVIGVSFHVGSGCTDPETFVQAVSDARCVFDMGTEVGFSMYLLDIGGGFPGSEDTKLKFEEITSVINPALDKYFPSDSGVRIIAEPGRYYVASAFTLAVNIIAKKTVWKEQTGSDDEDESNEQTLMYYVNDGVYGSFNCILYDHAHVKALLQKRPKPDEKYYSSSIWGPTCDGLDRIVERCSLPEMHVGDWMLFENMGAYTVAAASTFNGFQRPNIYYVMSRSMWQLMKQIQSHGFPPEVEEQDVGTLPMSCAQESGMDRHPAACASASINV

ODC [2] = molecular target: T1, ODC; assay: ODC activity in insulin-induced H-35 hepatoma cells; assay type: cell-based; conditions: 100 μM; for ODC activity (in words): added simultaneously with insulin
Experimental: It is known that in hepatoma H-35 cells, ODC activity is very low in quiescent cells, and is increased by the addition of 10^-6 M insulin, reaching a peak approximately 4 to 5 hours after the addition of the insulin.

[3] = test system: insulin-induced H-35 hepatoma cells; assay: Intracellular polyamine levels in insulin-induced H-35 hepatoma cells; assay type: cell-based, rat; conditions: 100 μM, hour 4
[4] = test system: active putrescine transport; assay: Uptake of (1,4-14C)-putrescine by H-4-II-E hepatoma cells; assay type: cell-based, rat
Experimental: (1,4-^14 C)-putrescine (10 μM) was added to the culture medium, and radioactivity measured in the cells (dpm/10 μg of protein). Uptake by control cells was considered to be 100%.
Because putrescine uptake by cells is regulated by an active transport system, its Km was determined for the H-4-II-E hepatoma cell line. The uptake of (1,4-^14 C)-putrescine was determined at two different putrescine concentrations as a function of time.
Each value of the plot was corrected by subtracting the amount of label due to non-specific binding to the cell membranae.

H-35 cells = assay: DBP uptake and intracellular distribution in H-35 hepatoma cells; assay type: in vitro ADME, rat
[5] = test system: cell-derived rat and human xenografts; conditions: compared with 0.15% DBP; cited from earlier work
[6] = test system: rat H-4-II-E hepatoma cells; assay: Cell morphology of rat H-4-II-E hepatoma cells (photomicrographs); assay type: cell-based
Experimental: (§1) Incubation of the cultures was carried out in standard fashion in the presence of 1 mM aminoguandine, an inhibitor of polyamine oxidases (PAO).
FIG. 7 is a series of photomicrographs (×160) of the above homologous cultures. The photomicrographs were taken 24 hours after introduction of the dibenzyldiaminoalkanes. […] Photo 7A is the control culture.

[7] = test system: rat H-4-II-E hepatoma cells; assay: Proliferation of rat H-4-II-E hepatoma cells in culture; assay type: cell-based
Experimental: as §1
Cell proliferation studies were also conducted to analyze the effect of the terminal groups on cell inhibition. […] The results are depicted graphically in FIG. 5.
Comparative proliferation studies were also carried out to study the effect of chain length on the inhibitory effect of N,N'-dibenzylaminoalkanes. (See FIG. 6.) The in vitro inhibitory effects of DMP, DMC, and DBPr, were studied in the same rat H-4-II-E hepatoma cells as the above experiments.
Results are shown graphically in FIG. 10.

[8] = added 3 hours after insulin (time 4 hours)
[9] = H-35 cells not treated with insulin

inhibition at 15000 µM (ODC [1]): < 10%
SMILES: c1ccc(CNCCCNCc2ccccc2)cc1 [DBPr, dibenzylpropanediamine]

inhibition at 15000 µM (ODC [1]): 13%
SMILES: CCNCCCCNCC [DEP, diethyl putrescine]

ODC inhibition (in words) (ODC [2]; [8]): ODC inhibition values were very similar | ODC activity (in words) (ODC [2]): no significant ODC activity was detected | inhibition at 15000 µM (ODC [1]): < 10% | intracellular distribution of DBP, cytosol (H-35 cells; [9]): 97% | intracellular distribution of DBP, nuclear fraction (H-35 cells; [9]): 2% | DBP uptake, of the amount added (H-35 cells; H-35 cells not treated with insulin, 100 μM, 24 hours): approximately 6±2% | DBP uptake, of the amount of putrescine added to the medium (H-35 cells; insulin-induced H-35 cells, 100 μM): approximately 13±4%
SMILES: c1ccc(CNCCCCNCc2ccccc2)cc1 [DBP, N,N'-dibenzylputrescine]
ODC inhibition (in words) (ODC [2]; time 1 hour): required longer time periods to reach similar ODC inhibition levels

ODC inhibition (in words) (ODC [2]; [8]): ODC inhibition values were very similar | ODC activity (in words) (ODC [2]): no significant ODC activity was detected | in vitro ODC inhibition (in words) (ODC [1]; isolated ODC): weaker inhibitors than putrescine itself | inhibition at 15000 µM (ODC [1]): < 10%
SMILES: c1ccc(CNCCCCCNCc2ccccc2)cc1 [DBC, N,N'-dibenzylcadaverine]
inhibition of uptake of exogenous putrescine ([4]; (1,4-14C)-putrescine 10 μM): produced an inhibition of the uptake of exogenous putrescine | effect on cell morphology ([6]; 100 μM, 24 hours): affect cell morphology similarly | effect on cell proliferation ([7]; 100 μM, time not stated): showed inhibition of cell proliferation

Further lines, the molecule ahead of its results:

SMILES: NCCCCN [putrescine, 1,4-diaminobutane]
ODC inhibition (in words) (ODC [2]; time 1 hour): required longer time periods to reach similar ODC inhibition levels | inhibition at 15000 µM (ODC [1]): 57% | intracellular putrescine level [3]: greatly increased the putrescine cell contents | intracellular spermidine level [3]: very little effect on intracellular spermidine and spermine levels | intracellular spermine level [3]: very little effect on intracellular spermidine and spermine levels | Km ([4]; 2 mM and 20 mM (1,4-14C)-putrescine): 5.2 ± 0.6 µM

SMILES: CNCCCCNC [DMP, dimethyl putrescine]
inhibition at 15000 µM (ODC [1]): 33%

SMILES: NCCCC(N)(C(=O)O)C(F)F (stereo not drawn) [DFMO, difluoromethylornithine]
ODC inhibited from the control group (ODC [2]; added 1 hour before harvesting (6 hours after insulin)): 79% | ODC inhibition (in words) (ODC [2]; [8]): ODC inhibition values were very similar | ODC activity (in words) (ODC [2]): no significant ODC activity was detected | concentration required to produce the same effect on xenografts [5]: 2% | intracellular putrescine level [3]: decreased the endogenous levels of putrescine | intracellular spermidine level [3]: lowered the levels of spermidine | intracellular spermine level [3]: Neither reagent had an effect on the intracellular concentration of spermine | effect on cell morphology ([6]; 100 μM, 24 hours): no morphological changes | effect on cell morphology ([6]; 1 mM): no morphological changes | effect on cell proliferation ([7]; 100 μM, time not stated): ineffective in inhibiting cell proliferation | effect on cell proliferation ([7]; 1 mM, after 48 hours): inhibit cell proliferation | minimal effective concentration ([7]; H4IIE, rat hepatoma cell line, read-out: concentration required for similar cytostatic effect): 1000 µM
